{
  "source": "patent US5688760A",
  "about": "“Polypeptides having bone resorption inhibitory activity comprising PTHrP-derived sequences” (Genentech, Inc., priority 1990, dated 1997)",
  "key": {"isolated osteoclasts": {"system": "isolated osteoclasts", "assay": "Osteoclast isolation and assay of bone resorption (resorption pits per osteoclast on bovine cortical bone slices)", "type": "cell-based, neonatal female Wistar rats", "set-up": "key to Activity (bone resorption inhibitory activity), Table 3 Effect of Amino Acid Substitutions: bone resorption inhibitory activity is designated by a \"+\"; inactivity by \"-\"", "settings": "for Activity (bone resorption inhibitory activity), Table 3 Effect of Amino Acid Substitutions: amino acid derivatives of PTHrP (107-111)", "description": "For example, osteoclasts may be settled on sections of bone and incubated in the presence of, and in the absence of test compounds. Osteoclasts can be determined histochemically and can then be removed following incubation with bone sections by, for example, ultrasonification and the bone surface examined by microscopy to measure resorption pits produced per isolated osteoclasts. The number of resorption pits may be counted and their areas quantitated, for example by digitized morphometry. The variants or derivatives with inhibitory activity on bone resorption will, of course, inhibit the activity of osteoclasts in resorption of bone, which can be readily ascertained by analysis of bone sections. Likewise, variants or derivatives which have no effect in inhibiting bone resorption or which stimulate bone resorption will be evidenced by the formation of resorption pits on bone-sections.\nOsteoclasts were isolated from neonatal female Wistar rats by curetting the long bones into culture medium (HEPES-buffered Medium 199 [Trademark Flow Laboratories]). The resulting cell suspension was allowed to settle onto 100 μm thick slices of devitalized bovine cortical bone for 20 minutes before rinsing. After this brief settling period, the majority of contaminating cells are removed in the rinsing step, resulting in a functionally pure population of osteoclasts. The bone slices were then incubated in tissue culture medium (Eagle's Minimum Essential Medium [Flow Laboratories] supplemented, with 100 iU/ml benzylpenicillin 100 μg/ml streptomycin and 10% heat-inactivated fetal bovine serum) at 37° C. in 95% air, 5% CO2, pH 7.3 in the presence or absence of test agents. After 24 hours, the cells were fixed, reacted cytochemically for tartrate-resistant acid phosphatase (TRACP) and the number of multinucleated cells with strong reactions for TRACP (i.e. osteoclasts) counted. The cells were then stripped by ultrasonication in 0.25M NH4 OH prior to processing for scanning electronic microscopy. The entire surface of each bone slice was scanned and the number of resorption pits counted. In selected experiments the depth of the pits are assessed. There was a minimum of 6 replicates for each concentration point for each peptide. Each experiment was repeated at least 3 times. Statistical significance was determined by using Student's t test to compare each treatment with control. Bone resorption can be expressed as pit No./OC/bone slice, total excavated plan area/OC/bone slice, or total excavated volume of bone/OC/bone slice. Such assays are routine and readily amenable to the screening of large numbers of compounds for bone resorption inhibitory activity."}, "[1]": {"system": "Cyclic AMP in osteoclasts", "assay": "Cyclic AMP assay in isolated osteoclasts", "type": "cell-based, rat", "settings": "osteoclasts pretreated with isobutylmethylxanthine 1 mM, peptide for 10 minutes", "description": "Recombinant hPTHrP(1-141) and recombinant hPTHrP(1-108) were prepared and purified as previously described (Suva et al., Supra, incorporated herein by reference). hPTHrP(107-139), […]COOH (SEQ ID NO:2), and other peptides were synthesized as carboxy-terminal amides, using an Applied Biosystems Peptide Synthesizer Model 430. Following HF cleavage, peptides were extracted from the resin with 60% (v/v) acetonitrile and 0.1% (v/v) trifluoroacetic acid and lyophilized. The crude peptides were purified by […] (2.5×90 cm column, C18, 20-30 μm. 300 Å resin, Vydac, California) with an acetonitrile gradient in the presence of 0.1% trifluoroacetic acid. The composition of the synthetic peptides was verified by quantitative amino acid analysis using a Beckman 6300 amino acid analyser. Cyclic AMP Assay: Osteoclasts were isolated as described above into 12-well tissue culture plates (Linbro). The cultures were pretreated with isobutylmethylxanthine (1 mM) for 20 minutes prior to administration of test peptides for 10 minutes. Cyclic AMP was extracted with 95% (v/v) ethanol/1 mM HCl and measured by radioimmunoassay. Four to six replicate wells were used in each treatment group."}, "[2]": {"assay": "In vivo serum calcium levels after intravenous injection in rats", "settings": "100 nanograms 100 grams body weight, saline control about 2.58", "description": "Mammalian serum calcium levels are tightly controlled by homeostatic mechanisms and show little variation. A model peptide, PTHrP 107-139 was injected intraveneously into rats (n=10) in an amount of 100 nanograms 100 grams body weight whereafter serum calcium levels were measured at 30 and 60 minutes by atomic absorption spectrascopy according to standard methods. Control groups of animals were injected with a positive control, calcitonin, which causes a decrease in serum calcium levels, as well as a negative control in the form of saline. Two groups of 10 rats ware used in these controls."}},
  "note": "Non-standard residues stand in square brackets, D forms with d. No end group written: not given here. 2Nal = N[C@@H](Cc1ccc2ccccc2c1)C(=O)O; Aib = CC(C)(N)C(=O)O",
  "data": [
    {"compound": "Thr Arg Ser Ala Trp Leu Asp Ser Gly Val Thr Gly Ser Gly Leu Glu Gly Asp His Leu Ser Asp Thr Ser Thr Thr Ser Leu Glu Leu Asp Ser Arg-COOH (TRSAWLDSGVTGSGLEGDHLSDTSTTSLELDSR-OH) [PTHrP(107-139)]", "values": [
      {"measurement": "inhibition of resorption (pit number/osteoclast number), FIG. 2", "setting": "isolated osteoclasts; peptides at 1 nM", "value": "substantial inhibition"},
      {"measurement": "cyclic AMP response", "setting": "[1]", "value": "no elevation"},
      {"measurement": "serum calcium level at 30 minutes after injection", "setting": "[2]", "value": 2.35, "unit": "millimolar"},
      {"measurement": "serum calcium level at 60 minutes after injection", "setting": "[2]", "value": "about 2.55 millimolar"}
    ]},
    {"compound": "CC1CNCCN1S(=O)(=O)c1cccc2cnccc12", "note": "(stereo not shown) [H7, 1-(5-isoquinolinesulfonyl)-2 methyl piperazine, reference compound]", "values": [
      {"measurement": "effect of PTHrP(107-139) on osteoclasts in the presence of protein kinase C inhibitor", "setting": "isolated osteoclasts", "value": "blocked"}
    ]},
    {"compound": "calmon calcitonin [reference compound]", "values": [
      {"measurement": "cyclic AMP response", "setting": "[1]", "value": 2.5, "unit": "fold"}
    ]},
    {"compound": "T R S npA (TRS[2Nal]; not fully specified (C-terminus); printed as T R S npA) [npA is 3(2-napthyl)alanine]", "values": [
      {"measurement": "Activity (bone resorption inhibitory activity), Table 3 Effect of Amino Acid Substitutions", "setting": "isolated osteoclasts", "value": "+"}
    ]},
    {"compound": "T R SmeA W (TRS[Aib]W; not fully specified (C-terminus); printed as T R SmeA W) [me is α-methyl]", "values": [
      {"measurement": "Activity (bone resorption inhibitory activity), Table 3 Effect of Amino Acid Substitutions", "setting": "isolated osteoclasts", "value": "+"}
    ]},
    {"compound": "T R C A W P G T C (TRCAWPGTC)", "values": [
      {"measurement": "Activity (bone resorption inhibitory activity), Table 3 Effect of Amino Acid Substitutions", "setting": "isolated osteoclasts", "value": "+"}
    ]},
    {"compound": "calcitonin [reference compound]", "values": [
      {"measurement": "serum calcium level at 30 minutes after injection", "setting": "[2]", "value": "about 2.35 millimolar"}
    ]}
  ]
}
